Read-outs that look alike come from different tables or passages of the source.
What was measured:
Format in all cases: physicochemical
[1] = Thermogravimetric Analysis (TGA)
Description: Thermogravimetric Analysis (TGA) data were collected on a Mettler TGA/SDTA 851e equipped with a 34 position autosampler. The instrument was temperature calibrated using certified indium. Typically 5-30 mg of each sample was loaded onto a pre-weighed aluminium crucible and was heated at 10° C.min^−1 from ambient temperature to 350° C. A nitrogen purge at 50 ml.min^−1 was maintained over the sample. The instrument control and data analysis software was STARe v9.10.

[2] = Differential Scanning Calorimetry (DSC); settings: from DSC endotherm shape and TGA weight loss
Description: Differential Scanning Calorimetry (DSC) data were collected on a Mettler DSC 823e equipped with a 34 position auto-sampler. The instrument was calibrated for energy and temperature using certified indium. Typically 0.5-3 mg of each sample, in a pin-holed aluminium pan, was heated at 10° C.min^−1 from 25° C. to 350° C. A nitrogen purge at 50 ml.min^−1 was maintained over the sample. The instrument control and data analysis software was STARe v9.10.

[3] = Phase stability by XRPD after storage at 40° C. and 75% relative humidity for one week; settings: solid form by low resolution XRPD after one week
Description: Condition 2 (Low Resolution)
X-Ray Powder Diffraction patterns were also collected on a Bruker D8 diffractometer using Cu K[…] radiation (40 kV, 40 mA), θ-2θ goniometer, and divergence of V4 and receiving slits, a Ge monochromator and a Lynxeye detector. The instrument is performance checked using a certified Corundum standard (NIST 1976). The software used for data collection was Diffrac Plus XRD Commander v2.5.0 and the data were analysed and presented using Diffrac Plus EVA v 11.0.0.2 or v 13.0.0.2. Samples were run under ambient conditions as flat plate specimens using powder as received. Approximately 15 mg of the sample was gently packed into a cavity cut into polished, zerobackground (510) silicon wafer. The sample was rotated in its own plane during analysis. The details of the data collection are:
The samples which had been prepared for the collection of low resolution XRPD traces were placed in a chamber maintained at 40° C. and 75% relative humidity. After one week the samples were reanalysed by low resolution XRPD (Condition 2), to check for phase changes. It can be seen that no phase change has occurred, and that citrate salts of the invention are stable for at least one week under these conditions.

[4] = Solubility assessment (solvent added in 10 volume aliquots); settings: organic solvent or mixture, thermodynamic from solid, read-out: Solubility assessment observation
Description: For each solvent investigated, approximately 8 mg of compound 1 was weighed into an 8 ml screw top glass vial. The solvent was added in 10 volume aliquots and the mixture sonicated and warmed (with a hot-air gun) to encourage dissolution. If dissolution was not achieved after the addition of 100 volumes of solvent, a further 100 volumes was added.

Thermogravimetric Analysis weight change ([1]; 160 to 250° C.): −20% w/w 160 to 250 °C
Thermogravimetric Analysis weight change ([1]; ambient to 160° C.): −0.4% w/w ambient to
weight loss in TGA corresponding to DSC thermal event ([1]; at thermal event at 176° C.): ~20%
temperature above which gross degradation is occurring [2]: > 176 °C
Phase Stability 1 wk @ 40° C./75% RH [3]: Crystalline Form 1
solubility ([4]; TBME, TBME, 10 vols): < 100 mg/mL
solubility ([4]; TBME, TBME, 20 vols): < 50 mg/mL
solubility ([4]; TBME, TBME, 30 vols): < 33.3 mg/mL
solubility ([4]; TBME, TBME, 40 vols): < 25 mg/mL
solubility ([4]; TBME, TBME, 50 vols): < 20 mg/mL
solubility ([4]; TBME, TBME, 60 vols): < 16.7 mg/mL
solubility ([4]; TBME, TBME, 70 vols): < 14.3 mg/mL
solubility ([4]; TBME, TBME, 80 vols): < 12.5 mg/mL
solubility ([4]; TBME, TBME, 90 vols): < 11.1 mg/mL
solubility ([4]; TBME, TBME, 100 vols): < 10 mg/mL
solubility ([4]; TBME, TBME, 200 vols): < 5 mg/mL
solubility ([4]; ethyl acetate, Ethyl acetate, 10 vols): < 100 mg/mL
solubility ([4]; ethyl acetate, Ethyl acetate, 20 vols): < 50 mg/mL
solubility ([4]; ethyl acetate, Ethyl acetate, 30 vols): < 33.3 mg/mL
solubility ([4]; ethyl acetate, Ethyl acetate, 40 vols): < 25 mg/mL
solubility ([4]; ethyl acetate, Ethyl acetate, 50 vols): < 20 mg/mL
solubility ([4]; ethyl acetate, Ethyl acetate, 60 vols): < 16.7 mg/mL
solubility ([4]; ethyl acetate, Ethyl acetate, 70 vols): < 14.3 mg/mL
solubility ([4]; ethyl acetate, Ethyl acetate, 80 vols): < 12.5 mg/mL
solubility ([4]; ethyl acetate, Ethyl acetate, 90 vols): < 11.1 mg/mL
solubility ([4]; ethyl acetate, Ethyl acetate, 100 vols): < 10 mg/mL
solubility ([4]; ethyl acetate, Ethyl acetate, 200 vols): < 5 mg/mL
solubility ([4]; i-propyl acetate, i-propyl acetate, 10 vols): < 100 mg/mL
solubility ([4]; i-propyl acetate, i-propyl acetate, 20 vols): < 50 mg/mL
solubility ([4]; i-propyl acetate, i-propyl acetate, 40 vols): < 25 mg/mL
solubility ([4]; i-propyl acetate, i-propyl acetate, 60 vols): < 16.7 mg/mL
solubility ([4]; i-propyl acetate, i-propyl acetate, 80 vols): < 12.5 mg/mL
solubility ([4]; i-propyl acetate, i-propyl acetate, 100 vols): < 10 mg/mL
solubility ([4]; i-propyl acetate, i-propyl acetate, 200 vols): < 5 mg/mL
solubility ([4]; toluene, Toluene, 10 vols): < 100 mg/mL
solubility ([4]; toluene, Toluene, 20 vols): < 50 mg/mL
solubility ([4]; toluene, Toluene, 30 vols): < 33.3 mg/mL
solubility ([4]; toluene, Toluene, 40 vols): < 25 mg/mL
solubility ([4]; toluene, Toluene, 50 vols): < 20 mg/mL
solubility ([4]; toluene, Toluene, 60 vols): < 16.7 mg/mL
solubility ([4]; toluene, Toluene, 70 vols): < 14.3 mg/mL
solubility ([4]; toluene, Toluene, 80 vols): < 12.5 mg/mL
solubility ([4]; toluene, Toluene, 90 vols): < 11.1 mg/mL
solubility ([4]; toluene, Toluene, 100 vols): < 10 mg/mL
solubility ([4]; toluene, Toluene, 200 vols): < 5 mg/mL
Compound: C1=C2COC/C=C/COCc3cc(ccc3OCCN3CCCC3)Nc3nccc(n3)C(=C1)O2 [Batch 4]

Source: US9062074B2, “(9E)-15-(2-pyrrolidin-1-yl-ethoxy)-7,12,25-trioxa-19,21,24-triaza-tetracyclo[18.3.1.1(2.5).1(14,18)]hexacosa-1(24),2,4,9,14,16,18(26),20,22-nonaene citrate salt” (CTI BioPharma Corp., priority 2009, dated 2015)
